Test results reported in patent publication US10968199B2, “Cycloalkyl-containing apoptosis signal-regulating kinase 1 inhibitors and methods of use thereof” (ENANTA PHARMACEUTICALS, INC., priority 2018, dated 2021).

These compounds were tested against ASK1 kinase (Homo sapiens (Human), UniProt Q99683) (assay: HTRF KinEASE assay of ASK1 kinase inhibition). Details: HTRF KinEASE-STK TR-FRET; 5 nM ASK1, 1 uM STK3 peptide substrate, 100 uM ATP, 3 hours.
Sequence of ASK1 kinase (Q99683 whole entry): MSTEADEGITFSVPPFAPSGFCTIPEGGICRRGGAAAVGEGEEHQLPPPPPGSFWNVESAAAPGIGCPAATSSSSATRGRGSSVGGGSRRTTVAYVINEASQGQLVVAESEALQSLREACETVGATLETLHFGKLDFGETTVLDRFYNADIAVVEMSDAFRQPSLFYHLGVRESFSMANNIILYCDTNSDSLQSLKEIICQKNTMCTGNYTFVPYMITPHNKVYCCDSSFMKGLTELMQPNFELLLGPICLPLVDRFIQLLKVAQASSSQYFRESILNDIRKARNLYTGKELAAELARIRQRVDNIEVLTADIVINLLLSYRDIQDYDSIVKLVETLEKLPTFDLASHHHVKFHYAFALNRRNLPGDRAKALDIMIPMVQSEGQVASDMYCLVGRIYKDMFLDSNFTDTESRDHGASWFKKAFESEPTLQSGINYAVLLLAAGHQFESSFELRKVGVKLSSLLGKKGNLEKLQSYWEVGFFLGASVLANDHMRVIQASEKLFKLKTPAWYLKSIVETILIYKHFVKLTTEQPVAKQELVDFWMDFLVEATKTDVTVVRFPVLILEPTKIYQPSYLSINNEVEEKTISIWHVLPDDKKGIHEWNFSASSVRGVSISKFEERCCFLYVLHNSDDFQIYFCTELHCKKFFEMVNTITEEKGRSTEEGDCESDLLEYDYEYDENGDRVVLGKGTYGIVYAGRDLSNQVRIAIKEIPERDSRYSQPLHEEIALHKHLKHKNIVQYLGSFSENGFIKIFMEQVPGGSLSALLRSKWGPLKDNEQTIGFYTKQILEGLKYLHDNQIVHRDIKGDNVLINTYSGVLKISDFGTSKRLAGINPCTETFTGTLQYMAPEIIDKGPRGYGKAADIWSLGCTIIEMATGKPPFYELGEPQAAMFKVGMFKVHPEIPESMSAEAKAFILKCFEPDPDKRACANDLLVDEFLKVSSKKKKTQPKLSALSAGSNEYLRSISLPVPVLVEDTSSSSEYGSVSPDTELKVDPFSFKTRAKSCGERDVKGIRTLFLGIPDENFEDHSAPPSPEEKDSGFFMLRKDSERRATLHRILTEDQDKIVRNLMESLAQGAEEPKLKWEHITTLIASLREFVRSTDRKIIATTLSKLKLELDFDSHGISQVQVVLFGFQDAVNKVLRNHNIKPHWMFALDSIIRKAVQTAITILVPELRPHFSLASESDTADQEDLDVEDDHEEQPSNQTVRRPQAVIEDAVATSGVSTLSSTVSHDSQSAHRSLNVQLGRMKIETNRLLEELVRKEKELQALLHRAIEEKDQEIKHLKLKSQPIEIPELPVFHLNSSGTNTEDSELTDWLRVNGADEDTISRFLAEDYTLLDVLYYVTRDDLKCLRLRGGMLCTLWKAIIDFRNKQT
Assay type: biochemical
Protocol: The ability (IC50) of compounds to inhibit ASK1 kinase activity was determined by HTRF® KinEASE™ Assay System.
ASK1 was purchased from Thermofisher (Catalogue #PV4011), ATP was purchased from Sigma (Catalogue #A7699), HTRF® KinEASE™ Assay System was obtained from Cisbio (Bedford, Mass.). ½ Area plate was purchased from Perkin Elmer (Catalogue # #6005560). HTRF® KinEASE™-STK is a generic method for measuring serine/threonine kinase activities using a time-resolved fluorescence resonance energy transfer (TR-FRET) immunoassay. The IC50 value for each compound was determined in the presence of compound (various concentration from 0 to 10 μM) and a fixed amount of ATP and peptide substrates. The test compound, 1 uM STK3 peptide substrate, and 5 nM of ASK1 kinase are incubated with kinase reaction buffer containing 50 mM HEPES pH 7.5, 0.01% BRIJ-35, 10 mM MgCl2, and 1 mM EGTA for 30 minutes. 100 uM ATP is added to start kinase reaction and incubated for 3 hours. The STK3-antibody labeled with Eu^3+-Cryptate and 125 nM streptavidin-XL665 are mixed in a single addition with stop reagents provided by the Cisbio kit used to stop the kinase reaction. Fluorescence is detected using an Envision Multilabeled 2014 reader from PerkinElmer. The Fluorescence is measured at 615 nm (Cryptate) and 665 nm (XL665) and a ratio of 665 nm/615 nm is calculated for each well. The resulting TR-FRET is proportional to the phosphorylation level. Staurosporine was used as the positive control. IC50 was determined by XLfit 5.3.
By using above method, the inhibition of ASK1 was tested for the compound of formula (I). IC50 ranges are as follows: A<1 nM; 1 nM<B<10 nM; C>10 nM.
`CCOC(=O)C1CC1c1cc(C(=O)Nc2cccc(-c3nncn3C(C)C)n2)c(F)cc1C` (centres unmarked) [Example 1, ethyl 2-(4-fluoro-5-((6-(4-isopropyl-4H-1,2,4-triazol-3-yl)pyridin-2-yl)carbamoyl)-2-methylphenyl)cyclopropane-1-carboxylate] gave an IC50 of 1 to 10 nM.
For `Cc1cc(F)c(C(=O)Nc2cccc(-c3nncn3C(C)C)n2)cc1C1CC1C(=O)O` (centres unmarked) [Example 2, 2-(4-fluoro-5-((6-(4-isopropyl-4H-1,2,4-triazol-3-yl)pyridin-2-yl)carbamoyl)-2-methylphenyl)cyclopropane-1-carboxylic acid], the IC50 was greater than 10 nM.
For `Cc1cc(F)c(C(=O)Nc2cccc(-c3nncn3C(C)C)n2)cc1C1CC1C(=O)NC1CC1` (centres unmarked) [Example 3, 5-(2-(cyclopropylcarbamoyl)cyclopropyl)-2-fluoro-N-(6-(4-isopropyl-4H-1,2,4-triazol-3-yl)pyridin-2-yl)-4-methylbenzamide], the IC50 was greater than 10 nM.
`Cc1cc(F)c(C(=O)Nc2cccc(-c3nncn3C(C)C)n2)cc1C1CC1NC(=O)OC(C)(C)C` (centres unmarked) [Example 4, tert-butyl (2-(4-fluoro-5-((6-(4-isopropyl-4H-1,2,4-triazol-3-yl)pyridin-2-yl)carbamoyl)-2-methylphenyl)cyclopropyl)carbamate] gave an IC50 of 1 to 10 nM.
`Cc1cc(F)c(C(=O)Nc2cccc(-c3nncn3C(C)C)n2)cc1C1CC1NC(=O)N1CCC(F)(F)C1` (centres unmarked) [Example 5, 3,3-difluoro-N-(2-(4-fluoro-5-((6-(4-isopropyl-4H-1,2,4-triazol-3-yl)pyridin-2-yl)carbamoyl)-2-methylphenyl)cyclopropyl)pyrrolidine-1-carboxamide] gave an IC50 greater than 10 nM.
In the case of `Cc1cc(F)c(C(=O)Nc2cccc(-c3nncn3C(C)C)n2)cc1C1CC1NC(=O)c1ccc(F)cc1` (centres unmarked) [Example 6, 2-fluoro-5-(2-(4-fluorobenzamido)cyclopropyl)-N-(6-(4-isopropyl-4H-1,2,4-triazol-3-yl)pyridin-2-yl)-4-methylbenzamide], the IC50 is reported as greater than 10 nM.
Compound `Cc1cc(F)c(C(=O)Nc2cccc(-c3nncn3C(C)C)n2)cc1C1CC1NS(=O)(=O)N(C)C` (centres unmarked) [Example 7, 5-(2-((N,N-dimethylsulfamoyl)amino)cyclopropyl)-2-fluoro-N-(6-(4-isopropyl-4H-1,2,4-triazol-3-yl)pyridin-2-yl)-4-methylbenzamide] has an IC50 greater than 10 nM.
`Cc1cnc(C(=O)Nc2cccc(-c3nncn3C(C)C)n2)cc1C1CC1NC(=O)OC(C)(C)C` (centres unmarked) [Example 8, tert-butyl (2-(2-((6-(4-isopropyl-4H-1,2,4-triazol-3-yl)pyridin-2-yl)carbamoyl)-5-methylpyridin-4-yl)cyclopropyl)carbamate] was tested, and the IC50 was greater than 10 nM.
With `Cc1cnc(C(=O)Nc2cccc(-c3nnnn3[C@H](C)CO)n2)cc1C1CC(NC(=O)OC(C)(C)C)C1` (stereo partly drawn) [Example 9, tert-butyl (R)-(3-(2-((6-(1-(1-hydroxypropan-2-yl)-1H-tetrazol-5-yl)pyridin-2-yl)carbamoyl)-5-methylpyridin-4-yl)cyclobutyl)carbamate] the IC50 was greater than 10 nM.
Work on `Cc1cc(F)c(C(=O)Nc2cccc(-c3nncn3C(C)C)n2)cc1C1CC1NC(=O)OCC(F)(F)F` (centres unmarked) [Example 10] yielded an IC50 of 1 to 10 nM.
For `Cc1cc(F)c(C(=O)Nc2cccc(-c3nncn3C(C)C)n2)cc1C1CC1NS(=O)(=O)C1CC1` (centres unmarked) [Example 11], the IC50 was 1 to 10 nM.
Compound `Cc1cc(F)c(C(=O)Nc2cccc(-c3nncn3C(C)C)n2)cc1C1CC1C(=O)N1CCC(F)(F)C1` (centres unmarked) [Example 12] has an IC50 greater than 10 nM.
Compound `Cc1cc(F)c(C(=O)Nc2cccc(-c3nncn3C(C)C)n2)cc1C1CC1NC(=O)N(C)CCC(F)(F)F` (centres unmarked) [Example 13] has an IC50 greater than 10 nM.
Work on `Cc1cc(F)c(C(=O)Nc2cccc(-c3nncn3C(C)C)n2)cc1C1CC1NC(=O)C(C)(C)C` (centres unmarked) [Example 14] yielded an IC50 greater than 10 nM.
For `CCOC(=O)C1CC1c1cc(C(=O)Nc2cccc(-c3nncn3C(C)C)n2)ncc1C` (centres unmarked) [Example 15], the IC50 was 1 to 10 nM.
`COc1cc(C)c(C2CC2C(=O)N2CCC(F)(F)C2)cc1C(=O)Nc1cccc(-c2nncn2C(C)C)n1` (centres unmarked) [Example 16] was tested, and the IC50 was 1 to 10 nM.
Work on `COc1cc(C)c(C2CC2NC(=O)OCC(F)(F)F)cc1C(=O)Nc1cccc(-c2nncn2C(C)C)n1` (centres unmarked) [Example 17] yielded an IC50 of 1 to 10 nM.
`COc1cc(C)c(C2CC2NC(=O)N(C)CCC(F)(F)F)cc1C(=O)Nc1cccc(-c2nncn2C(C)C)n1` (centres unmarked) [Example 18] showed an IC50 of 1 to 10 nM.
With `Cc1cnc(C(=O)Nc2cccc(-c3nncn3C(C)C)n2)cc1C1CC1NC(=O)OCC(F)(F)F` (centres unmarked) [Example 19] the IC50 was greater than 10 nM.
`COc1cc(C)c(C2CC2NS(=O)(=O)N(C)C)cc1C(=O)Nc1cccc(-c2nncn2C(C)C)n1` (centres unmarked) [Example 20] showed an IC50 of 1 to 10 nM.
With `COc1cc(C)c(C2CC2NS(=O)(=O)CCC(F)(F)F)cc1C(=O)Nc1cccc(-c2nncn2C(C)C)n1` (centres unmarked) [Example 21] the IC50 was 1 to 10 nM.
`COc1cc(C)c(C2CC2NC(=O)c2ccc(F)cc2)cc1C(=O)Nc1cccc(-c2nncn2C(C)C)n1` (centres unmarked) [Example 22] was tested, and the IC50 was 1 to 10 nM.
`COc1cc(C)c(C2CC2NC(=O)C(C)(C)C)cc1C(=O)Nc1cccc(-c2nncn2C(C)C)n1` (centres unmarked) [Example 23] gave an IC50 of 1 to 10 nM.
For `Cc1cc(F)c(C(=O)Nc2cccc(-c3nncn3[C@H](C)CO)n2)cc1C1CC1C(=O)N1CCC(F)(F)C1` (some centres unmarked) [Example 24], the IC50 was 1 to 10 nM.
In the case of `Cc1cc(F)c(C(=O)Nc2cccc(-c3nncn3[C@H](C)CO)n2)cc1C1CC1NC(=O)OCC(F)(F)F` (some centres unmarked) [Example 25], the IC50 is reported as greater than 10 nM.
In the case of `Cc1cc(F)c(C(=O)Nc2cccc(-c3nncn3[C@H](C)CO)n2)cc1C1CC1NC(=O)N(C)CCC(F)(F)F` (some centres unmarked) [Example 26], the IC50 is reported as 1 to 10 nM.
With `Cc1cc(F)c(C(=O)Nc2cccc(-c3nncn3[C@H](C)CO)n2)cc1C1CC1NS(=O)(=O)CCC(F)(F)F` (some centres unmarked) [Example 27] the IC50 was 1 to 10 nM.
In the case of `Cc1cc(F)c(C(=O)Nc2cccc(-c3nncn3[C@H](C)CO)n2)cc1C1CC1NS(=O)(=O)N(C)C` (some centres unmarked) [Example 28], the IC50 is reported as 1 to 10 nM.
Compound `Cc1cc(F)c(C(=O)Nc2cccc(-c3nncn3[C@H](C)CO)n2)cc1C1CC1NC(=O)C(C)(C)C` (some centres unmarked) [Example 29] has an IC50 of 1 to 10 nM.
